The record followed here is US6280712A, “Sun screen agents” (Cognis Deutschland GmbH, priority 1997, dated 2001).

Assay type in all cases: physicochemical
A short description of series [1]: High-spreading property (statement in words). The settings on record: general statement.
Series [2] in a line: Dissolving power for UV filters (statement in words). The settings on record: for dissolving properties for UV filters: general statement; for dissolving power for UV filters: in contrast to other high-spreading oils, for example dialkyl ethers or cyclomethicone.
The next series is described as follows: Zeidler spreading value. The source says:
in which R^1 and R^2 independently of one another represent linear or branched alkyl and/or alkenyl groups containing 1 to 22 carbon atoms, with the proviso that they contain in all at least 12, preferably 12 to 50 and more preferably 15 to 25 carbon atoms. The compounds are obtained by transesterifying dimethyl or diethyl carbonate, for example, with the corresponding fatty alcohols in known manner. Accordingly, the fatty carbonates may be symmetrical or non-symmetrical. However, carbonates in which R^1 and R^2 are the same and represent C6-16 alkyl groups are preferably used. Transesterification products of dimethyl or diethyl carbonate with octanol, 2-ethylhexyl alcohol, decanol, cetyl alcohol, cetearyl alcohol, stearyl alcohol, isostearyl alcohol, oleyl alcohol, behenyl alcohol and/or erucyl alcohol in the form of their mono- and diesters or technical mixtures and Guerbet alcohols containing 8 to 24 carbon atoms are particularly preferred. […] The dialkyl carbonates may be used in quantities of 1 to 30% by weight, preferably 5 to 20% by weight and more preferably 8 to 10% by weight, based on the composition.

Series [3] is described as follows: Volatility of the oil (remark in Table 1). The following applies: remark at Zeidler spreading value.

In the case of `CCCCC(CC)COC(=O)OCC(CC)CCCC` (stereo not shown) [di-2-ethylhexyl carbonate], the spreading result in series [1] is “high-spreading”. In addition, in series [2], the “dissolving properties for UV filters” value was “excellent dissolving properties for UV filters” and the “dissolving power for UV filters” value is “distinctly higher dissolving power for UV filters”. The Zeidler spreading value in “Zeidler spreading value” is 1600 mm^2/10 mins.
With `CCCCCCCCOC(=O)OCCCCCCCC` [di-n-octyl carbonate], in series [1], the spreading entry is reported as “high-spreading”. In series [2], the “dissolving properties for UV filters” value was “excellent dissolving properties for UV filters” and the “dissolving power for UV filters” value is “distinctly higher dissolving power for UV filters”. In “Zeidler spreading value”, this compound registered a Zeidler spreading value of 1600 mm^2/10 mins.
In the case of Cyclomethicone [reference compound], the volatility entry in series [3] is “volatile”. Moreover, the Zeidler spreading value in “Zeidler spreading value” is on record as more than 1600 mm^2/10 mins.
